Reference: patent US11766434B2, “Pyrimidinone derivatives as CDC7 inhibitors” (Cancer Research Technology Limited, priority 2016, dated 2023)
Counter-ions that a name gives are not always drawn.

Key:
Cdc7 = Cdc7 (Homo sapiens, UniProt O00311); assay: Cdc7 cell pharmacodynamics assay Method 3: pS53MCM2 levels in SW48 cells; format: cell-based; design: endogenous in cells; host or cells: SW48; conditions: 6 hours treatment, read-out: Biomarker Method 3 (pEC50) (converted)
Text: This protocol describes a method to investigate the inhibition of Cdc7 activity by measuring pS53MCM2 levels in cells, after treatment with compounds.
• SW48 cells • RPMI 1640 (Sigma, R5886) • 10% FCS (Sera Laboratories International Ltd, EU000F Batch: 108005) • 100× L-Glutamine (Invitrogen, 25030-024) • D-Glucose Solution (10%) (Sigma, G8644) • HEPES Buffer Solution (Sigma, 83264) • Sodium Pyruvate (Sigma, S8636) • PBS (Fisger, BP399-4) • Trypsin/EDTA (Invitrogen 25300-054) • 2% BSA in PBS • Cell Extraction Buffer (Invitrogen FNN0011) • Protease inhibitor cocktail (Sigma P-2714) • PMSF 0.3M stock in DMSO (Sigma P7626) • Antibody—rabbit pMCM2 Ser53 (Bethyl #A300-756A) • Antibody—goat MCM2 (Bethyl #A300-122A) • Antibody—goat Anti Rabbit IgG HRP (Perbio Science UK Ltd 31462) • SuperSignal ELISA Pico Chemiluminescent Substrate (Perbio Science UK Ltd 37070) Method • Plate 30,000 SW48 cells per well in standard TC treated 96 well plate in 100 μL complete RPMI 1640 medium. • Allow cells to settle overnight in incubator set at 37° C. and 5% CO2. • Cell treatment: prepare a 384 well plate containing 80 μl PBS/well. The PBS should be at room temperature—to be referred to as intermediate plate. Transfer 2 μL of compound from mother plate to intermediate (daughter plate) 1:40 dilution, then 5 μL intermediate to cell (daughter) plate. • Once all cells are treated place the cells back to the incubator and incubate for 6 hours. • Dilute the capture antibody (total MCM2 #A300-122A) 1 in 250 in the required volume of PBS (5 mL per assay plate, plus 5 mL for dead volume) and add 50 μL to each well of a Hybond plate. Seal the plate and incubate at room temperature for a minimum of 2 hours. • Defrost aliquot of Invitrogen Cell Extraction Buffer (FNN0011) on ice and supplement with appropriate volume of both Sigma protease inhibitor cocktail (P-2714) and PMSF (final cone 1 mM from a 1 M stock in DMSO). • After the 6 hour cell treatment time, tap out the media from the assay plates and place them in the −80° C. freezer for at least 5 minutes. • Remove plates from freezer and add 20 μL of ice cold complete lysis buffer, with the multidrop. Incubate cells for 30 minutes at 4° C. • Add 80 μL per well 2% BSA. • Flick out the remaining liquid from the capture plate and transfer 80 μL from the lysis plate to the same wells in the capture/ELISA plate, using the Biomek. Cover with plate seal and incubate plates overnight at 4° C. • Wash plates with PBS, remove any residual remaining liquid and add 50 μL per well of pMCM2 Ser53 antibody (#A300-756A) diluted 1 in 100 in 2% BSA. Cover plate and incubate at room temperature for 2 hours with gentle shaking. • Wash plates with PBS, remove any residual remaining liquid and Incubate with 50 μL goat anti rabbit antibody (1 in 800 dilution in 2% BSA), for 1 hour at room temperature. • Wash plates with PBS, remove any residual remaining liquid and add 50 μL mixed SuperSignal Pico substrate. • Incubate each plate for 5 minutes at room temperature shielding the plates from direct light (with a cover plate). Read plates with the luminescent detection. Results

Cdc7/ASK = Cdc7/ASK (Homo sapiens, UniProt O00311); assay: Cdc7 biochemical assay Method 3: off-chip mobility shift assay (MSA) run at Carna Biosciences; design: purchased Carna Biosciences; host or cells: baculovirus expression system; conditions: MCM2 peptide 1000 nM, ATP 5 μM, 5 hours, read-out: Biochemical method 3 (pIC50) (converted)
Experimental: This protocol describes a method for assaying Cdc7/ASK for activity. The assay is an off-chip mobility shift assay (MSA) run at Carna Biosciences.
The test compound was dissolved in and diluted with dimethylsulfoxide (DMSO) to achieve 100-fold higher concentration which was specified by the sponsor. Then the solution was further 25-fold diluted with assay buffer to make the final test compound solution. Reference compounds for assay control were prepared similarly. 2. Kinase Cdc7/ASK: Full-length human Cdc7 [1-574(end) amino acids of accession number NP_003494.1] was co-expressed as N-terminal GST-fusion protein (92 kDa) with Dbf4(ASK) [1-674(end) amino acids of accession number NP_006707.1] using baculovirus expression system. GST-Cdc7 was purified by using glutathione sepharose chromatography. 3. Assay Reagents and Procedures Off-Chip Mobility Shift Assay (MSA) • 1) The […] were prepared with assay buffer (20 mM HEPES, 0.01% Triton X-100, 1 mM DTT, pH 7.5) and mixed and incubated in a well of polypropylene 384 well microplate for 5 hours at room temperature. • 2) […] of Termination Buffer (QuickScout Screening Assist MSA; Carna Biosciences) was added to the well. • 3) The reaction mixture was applied to LabChip system (Perkin Elmer), and the product and substrate peptide peaks were separated and quantitated. • 4) The kinase reaction was evaluated by the product ratio calculated from peak heights of product (P) and substrate (S) peptides (P/(P+S)). 4. Reaction Conditions
5. Data Analysis The readout value of reaction control (complete reaction mixture) was set as a 0% inhibition, and the readout value of background (Enzyme(−)) was set as a 100% inhibition, then the percent inhibition of each test solution was calculated. IC50 value was calculated from concentration vs. % Inhibition curves by fitting to a four parameter logistic curve. Results

Sequence of Cdc7 (O00311 whole entry): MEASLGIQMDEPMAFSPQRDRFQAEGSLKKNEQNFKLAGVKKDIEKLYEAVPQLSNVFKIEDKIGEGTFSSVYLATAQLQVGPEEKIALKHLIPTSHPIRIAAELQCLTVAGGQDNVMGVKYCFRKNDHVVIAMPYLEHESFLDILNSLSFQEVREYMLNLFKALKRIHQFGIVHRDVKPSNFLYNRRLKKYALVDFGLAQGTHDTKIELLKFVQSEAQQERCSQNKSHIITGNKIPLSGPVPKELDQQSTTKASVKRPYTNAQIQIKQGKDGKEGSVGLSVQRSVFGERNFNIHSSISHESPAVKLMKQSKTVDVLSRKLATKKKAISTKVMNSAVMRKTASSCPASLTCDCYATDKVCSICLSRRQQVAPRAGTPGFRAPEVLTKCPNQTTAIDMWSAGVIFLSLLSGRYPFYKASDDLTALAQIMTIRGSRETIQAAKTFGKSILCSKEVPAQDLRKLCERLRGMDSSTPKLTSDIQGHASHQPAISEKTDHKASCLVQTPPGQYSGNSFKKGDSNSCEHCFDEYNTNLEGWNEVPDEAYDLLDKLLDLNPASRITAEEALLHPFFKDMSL
Sequence of Cdc7 (Q9UBU7 whole entry partner): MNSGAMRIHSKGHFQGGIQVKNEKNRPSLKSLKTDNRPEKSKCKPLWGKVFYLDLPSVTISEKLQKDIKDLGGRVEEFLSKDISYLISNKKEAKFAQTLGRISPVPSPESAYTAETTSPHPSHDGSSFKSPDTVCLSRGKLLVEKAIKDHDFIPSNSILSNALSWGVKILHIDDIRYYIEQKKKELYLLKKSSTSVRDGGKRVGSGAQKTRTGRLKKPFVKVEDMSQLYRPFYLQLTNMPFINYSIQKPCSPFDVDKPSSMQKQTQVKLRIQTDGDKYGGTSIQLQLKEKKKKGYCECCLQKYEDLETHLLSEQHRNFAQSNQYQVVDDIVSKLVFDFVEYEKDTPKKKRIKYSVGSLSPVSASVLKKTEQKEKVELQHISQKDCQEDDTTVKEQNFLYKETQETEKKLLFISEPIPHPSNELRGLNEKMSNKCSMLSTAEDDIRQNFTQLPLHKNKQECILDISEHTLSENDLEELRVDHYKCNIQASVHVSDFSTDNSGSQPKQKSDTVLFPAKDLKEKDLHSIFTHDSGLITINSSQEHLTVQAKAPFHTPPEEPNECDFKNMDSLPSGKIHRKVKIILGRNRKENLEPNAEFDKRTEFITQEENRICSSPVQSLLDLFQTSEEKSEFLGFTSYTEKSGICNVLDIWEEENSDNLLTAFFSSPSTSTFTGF
Sequence of Cdc7/ASK (O00311 whole entry): as the sequence (O00311 whole entry) above
Sequence of Cdc7/ASK (Q9UBU7 whole entry partner): as the sequence (Q9UBU7 whole entry partner) above

EC50 (Cdc7) [nM] | IC50 (Cdc7/ASK) [nM] | SMILES
251 | 5.75 | O=c1[nH]c(-c2scnc2Cl)nc(N2CCNCC(F)C2)c1Cl (racemic) [Compound 71, 5-chloro-2-(4-chlorothiazol-5-yl)-4-(6-fluoro-1,4-diazepan-1-yl)-1H-pyrimidin-6-one hydrochloride]
95.5 | 3.8 | O=c1[nH]c(-c2scnc2Cl)nc(N2CCNCC(F)C2)c1Cl (single isomer, unassigned) [Compound 72, 5-chloro-2-(4-chlorothiazol-5-yl)-4-(6-fluoro-1,4-diazepan-1-yl)-1H-pyrimidin-6-one hydrochloride]
75.9 | 4.27 | O=c1[nH]c(-c2scnc2Cl)nc(N2CCNCC(F)(F)C2)c1Cl [Compound 66, 5-chloro-2-(4-chlorothiazol-5-yl)-4-(6,6-difluoro-1,4-diazepan-1-yl)-1H-pyrimidin-6-one hydrochloride]
3630 | 43.7 | C[C@@H]1CNCCN1c1nc(-c2ccnn2C)[nH]c(=O)c1Cl [Compound 50, 5-chloro-4-[(2R)-2-methylpiperazin-1-yl]-2-(2-methylpyrazol-3-yl)-1H-pyrimidin-6-one]
38 | 3.89 | C[C@@H]1CNCCN1c1nc(-c2scnc2Cl)[nH]c(=O)c1Cl [Compound 65, 5-chloro-2-(4-chlorothiazol-5-yl)-4-[(2R)-2-methylpiperazin-1-yl]-1H-pyrimidin-6-one hydrochloride]
4170 | 44.7 | Cc1nccn1-c1nc(N2CCOC[C@H]2C)c(Cl)c(=O)[nH]1 [Compound 56, 5-chloro-2-(2-methylimidazol-1-yl)-4-[(3R)-3-methylmorpholin-4-yl]-1H-pyrimidin-6-one]
1230 | 20 | Cc1ncsc1-c1nc(N2CCNCC2C(F)(F)F)c(Cl)c(=O)[nH]1 (centres unmarked) [Compound 60, 5-chloro-2-(4-methylthiazol-5-yl)-4-[2-(trifluoromethyl)piperazin-1-yl]-1H-pyrimidin-6-one]
16.6 | 3.39 | O=c1[nH]c(-c2scnc2Cl)nc(N2CCNCC2C(F)F)c1Cl (single isomer, unassigned) [Compound 69, 5-chloro-2-(4-chlorothiazol-5-yl)-4-[2-(difluoromethyl)piperazin-1-yl]-1H-pyrimidin-6-one hydrochloride]
162 | 12.9 | Cc1ncsc1-c1nc(N2CCNCC2C(F)F)c(Cl)c(=O)[nH]1 (centres unmarked) [Compound 61, 5-chloro-4-[2-(difluoromethyl)piperazin-1-yl]-2-(4-methylthiazol-5-yl)-1H-pyrimidin-6-one]
724 | 6.46 | Cc1ncsc1-c1nc(N2CCNCC(F)(F)C2)c(Cl)c(=O)[nH]1 [Compound 57, 5-chloro-4-(6,6-difluoro-1,4-diazepan-1-yl)-2-(4-methylthiazol-5-yl)-1H-pyrimidin-6-one hydrochloride]
331 | 7.08 | Cc1ncsc1-c1nc(N2CCNC[C@H]2C)c(Cl)c(=O)[nH]1 [Compound 58, 5-chloro-4-[(2R)-2-methylpiperazin-1-yl]-2-(4-methylthiazol-5-yl)-1H-pyrimidin-6-one]
4570 | 51.3 | Cc1nocc1-c1nc(N2CCNC[C@H]2C)c(Cl)c(=O)[nH]1 [Compound 49, 5-chloro-2-(3-methylisoxazol-4-yl)-4-[(2R)-2-methylpiperazin-1-yl]-1H-pyrimidin-6-one]
200 | 6.92 | O=c1[nH]c(-c2scnc2Cl)nc(N2CCNCC2C(F)(F)F)c1Cl (centres unmarked) [Compound 68, 5-chloro-2-(4-chlorothiazol-5-yl)-4-[2-(trifluoromethyl)piperazin-1-yl]-1H-pyrimidin-6-one]
195 | 3.72 | O=c1[nH]c(-c2cn[nH]c2Cl)nc(N2CCNCC(F)(F)C2)c1Cl [Compound 40, 5-chloro-2-(5-chloro-1H-pyrazol-4-yl)-4-(6,6-difluoro-1,4-diazepan-1-yl)-1H-pyrimidin-6-one hydrochloride]
166 | 4.17 | C[C@@H]1COCCN1c1nc(-c2scnc2Cl)[nH]c(=O)c1Cl [Compound 64, 5-chloro-2-(4-chlorothiazol-5-yl)-4-[(3R)-3-methylmorpholin-4-yl]-1H-pyrimidin-6-one]
977 | 21.4 | Cc1ncsc1-c1nc(N2CCNCC(F)C2)c(Cl)c(=O)[nH]1 (centres unmarked) [Compound 62, 5-chloro-4-(6-fluoro-1,4-diazepan-1-yl)-2-(4-methylthiazol-5-yl)-1H-pyrimidin-6-one]
324 | 6.76 | O=c1[nH]c(-c2scnc2Cl)nc(N2CCNCC2C(F)F)c1Cl (single isomer, unassigned) [Compound 70, 5-chloro-2-(4-chlorothiazol-5-yl)-4-[2-(difluoromethyl)piperazin-1-yl]-1H-pyrimidin-6-one hydrochloride]
389 | 3.8 | C[C@@H]1COCCN1c1nc(-c2cn[nH]c2Cl)[nH]c(=O)c1Cl [Compound 42, 5-chloro-2-(5-chloro-1H-pyrazol-4-yl)-4-[(3R)-3-methylmorpholin-4-yl]-1H-pyrimidin-6-one]
525 | 5.5 | O=c1[nH]c(-c2scnc2C(F)(F)F)nc(N2CCNCC(F)(F)C2)c1Cl [Compound 63, 5-chloro-4-(6,6-difluoro-1,4-diazepan-1-yl)-2-[4-(trifluoromethyl)thiazol-5-yl]-1H-pyrimidin-6-one]
97.7 | 6.03 | O=c1[nH]c(-c2scnc2Cl)nc(N2CCNCC2C(F)F)c1Cl (centres unmarked) [Compound 67, 5-chloro-2-(4-chlorothiazol-5-yl)-4-[2-(difluoromethyl)piperazin-1-yl]-1H-pyrimidin-6-one]
1320 | 10.2 | O=c1[nH]c(-c2scnc2Cl)nc(N2CCNCC(F)C2)c1Cl (single isomer, unassigned) [Compound 73, 5-chloro-2-(4-chlorothiazol-5-yl)-4-(6-fluoro-1,4-diazepan-1-yl)-1H-pyrimidin-6-one hydrochloride]
724 | 7.41 | Cc1ncsc1-c1nc(N2CCOC[C@H]2C)c(Cl)c(=O)[nH]1 [Compound 59, 5-chloro-4-[(3R)-3-methylmorpholin-4-yl]-2-(4-methylthiazol-5-yl)-1H-pyrimidin-6-one]
